US9822170B2, “Co-use of a clusterin inhibitor with an EGFR inhibitor to treat cancer” (ALETHIA BIOTHERAPEUTICS INC., priority 2012, dated 2017)

Legend:
[1] = test system: H1299 cells; assay: CellTiter-Glo Luminescent Cell Viability Assay; type: cell-based, human
Protocol: (§1) Following this induction, the cells were treated with erlotinib (20 μM) for 96 h and the number of cells was determined using the CellTiter-Glo® Luminescent Cell Viability Assay (Promega, Madison, Wis.). As a control, additional cells were not induced with sCLU or TGFβ. […] We also compared the response to erlotinib in cells that were induced to undergo an EMT with either sCLU or TGFβ.

[2] = test system: H460 cells; assay: CellTiter-Glo Luminescent Cell Viability Assay; type: cell-based, human; details: sCLU 0.25 μg/ml or TGFβ 2 nM for 48 h, then erlotinib 20 μM for 96 h
Protocol: as §1

[3] = test system: cancer cells; details: incubated with cancer cells; WO2007/030930, WO2011/063523; cited from earlier work

Molecule: C#Cc1cccc(Nc2ncnc3cc(OCCOC)c(OCCOC)cc23)c1 [erlotinib]
- responsiveness to erlotinib after stimulation of EMT ([1]; H1299 cells, sCLU 0.25 μg/ml or TGFβ 2 nM for 48 h, then erlotinib 20 μM for 96 h): did not change the responsiveness
- sensitivity of the cells to erlotinib ([1]; H1299 compared with H460 cells, erlotinib 20 μM for 96 h): H1299 cells were more sensitive to erlotinib than the H460 cells
- responsiveness to erlotinib after stimulation of EMT [2]: did not change the responsiveness

B1: 16B5: murine anti-clusterin (sCLU) antibody that blocks EMT; VL SEQ ID NO.:25, VH SEQ ID NO.:29 (antibody, V domains shown)
VH: EVQLQQSGAELVKPGASVRLSCTTSGFNIKDIYMHWVKQRPEQGLEWIGRIDPAYGNTKYDPKFQGKATITADTSSNTAYLQLSSLTSEDTAVYYCARRYDTAMDYWGQGTSVTVSS
VL: DIVMSQSPSSLAVSAGEKVTMSCKSSQSLLNSRTRKNYLAWYQQKPGQSPKLLIYWASTRESGVPDRFTGSGSGTDFTLTISSVQAEDLAVYYCKQSYNLWTFGGGTKLEFK
modifications: murine 16B5 heavy chain variable region; murine 16B5 light chain variable region
- blocking of EMT (maintenance of membrane E-cadherin expression) [3]: could block EMT
